Source: US20230340012A1, “NATURAL AND SYNTHETIC COMPOUNDS FOR TREATING CANCER AND OTHER DISEASES” (PACIFIC ARROW LIMITED, priority 2009, published 2023)

Test system: cancer cells
Assay: MTT cytotoxic assay of esterification products (Cytotoxicity activity)
Type: cell-based, human
Details: MTT cytotoxic assay, isolated esterification products of E4A
Excerpt: The peaks, fractions and compounds are selected according to the activities of times studies and the changes of peaks. Selecting the HPLC fractions for isolation is according to the cytotoxic activity of the reaction product obtained at a specific time. The compounds having strong to weak activities are selected and isolated. Selecting the HPLC fractions for isolation may be according to the cytotoxic activity of times studies and the change of peaks. The anti-cancer activities are the MTT studies of bone (U2OS), lung (H460), bladder (HTB-9), ovary (ES2), colon (HCT116), pancreas (Capan), ovary(OVCAR3), prostate (DU145), skin (SK-Mel-5), mouth (KB), kidney (A498), breast (MCF-7), liver (HepG2), brain (T98G), leukemia (K562), cervix (HeLa).
Esterification of compound (A), (B), (C), (D1), (D2), (E), (F), (G), (H1), (H2), E4A, E4A2Y, (P1), P(2), terpene, isoprene, triterpenes, hydroxylated triterpenes, with acyl halide, wherein the halide comprise chloride, bromide, fluoride and iodide, wherein the acyl halide comprise acyl chloride, wherein acyl chloride comprise tigloyl chloride, angeloyl chloride, acetyl chloride, crotonoyl chloride, 3,3-Dimethylacryloyl chloride, senecioyl chloride, cinnamoyl chloride, pentenoyl chloride, hexanoyl chloride, benzoyl chloride, ethylbutyryl chloride, propionyl chloride, 2-propenoyl chloride, isobutyryl chloride, butyryl chloride, (2E)-2-pentenoyl chloride, 4-Pentenoyl chloride, 5-hexenoyl chloride, heptanoyl chloride, octanoyl chloride, nonanoyl chloride, decanoyl chloride, Lauroyl chloride, myristoyl chloride, oleoyl chloride. The compounds vary in composition when the time or temperature of the reaction is changed. The peaks, fractions and compounds are selected according to the activities of times studies and the changes of peaks. The compounds having strong to weak activities are selected and isolated. The anti-cancer activities (Cytotoxic Assay) are the MTT studies of bone (U2OS), lung (H460), bladder(HTB-9), ovary (ES2), colon (HCT116), pancreas (Capan), ovary(OVCAR3), prostate (DU145), skin (SK-Mel-5), mouth (KB), kidney (A498), breast (MCF-7), liver (HepG2), brain (T98G), leukemia (K562), cervix (HeLa). The active esterification products are purified with HPLC. The reaction product of mixtures and individual compounds are tested with MTT Cytotoxic Assay. Details of method are in Experiment 3 of the present application. A second esterification of compound can be selected from the above experiment results to produce new active compounds. A partial esterification compound is selected from the above experiments to perform a second or repeated with a third esterification with different acyl chloride in order to produce new active compounds with the experiments in the present application.
Method: 40 mg of triterpene core (fraction IV) was dissolved in 1 ml pyridine in a 50 ml tube. Reaction is started by adding 0.2 ml of acyl chloride (Tigloyl chloride, angeloyl chloride, Acetyl chloride, Crotonoyl chloride, 3,3-Dimethylacryloyl chloride(senecioyl chloride), Cinnamoyl chloride, Pentenoyl chloride, Hexanoyl chloride, benzoyl chloride or Ethylbutyryl chloride). The mixture is stirred for 5 sec, 1 min, 2 min, 5 min, 10 min, 30 min, 1 hr, 2 hr, 18 hr, 2 days or 3 days at 0° C., 25° C. or 75° C. temperature. At the end of reaction, 5 ml of 2N HCl or 1 M NaHCO3 is added to the reaction mixture. The solution is then extracted 3 times with 10 ml of ethyl acetate which is then evaporated under vacuum and at 45C and lyophilization. The reaction product is dissolved in 80% acetonitrile - 0.005% Trifluoroacetic acid or DMSO; and was separated with HPLC. Selecting the HPLC fractions for isolation is according to the cytotoxic activity of the reaction product obtained at a specific reaction time. The active esterification products are purified with HPLC. The reaction product of mixtures and individual compounds are tested with MTT cytotoxic assay. Structures are determined with NMR. […]

Row | Structure (SMILES) | Cytotoxicity activity
1 | CC(C)=CC(=O)OC1C(OC(=O)C=C(C)C)C2(CO)C(OC(=O)C=C(C)C)CC3(C)C(=CCC4C5(C)CCC(O)C(C)(CO)C5CCC43C)C2CC1(C)C (stereo not shown) [Compound B22] | moderate
2 | CC(C)=CC(=O)OC1C(OC(=O)C=C(C)C)C2(CO)C(O)CC3(C)C(=CCC4C5(C)CCC(OC(=O)C=C(C)C)C(C)(CO)C5CCC43C)C2CC1(C)C (stereo not shown) [Compound B23] | moderate
3 | CC(C)=CC(=O)OC1C(OC(=O)C=C(C)C)C2(CO)C(O)CC3(C)C(=CCC4C5(C)CCC(O)C(C)(CO)C5CCC43C)C2CC1(C)C (stereo not shown) [Compound B24] | moderate
4 | CC(C)=CC(=O)OCC12C(O)CC3(C)C(=CCC4C5(C)CCC(O)C(C)(CO)C5CCC43C)C1CC(C)(C)C(OC(=O)C=C(C)C)C2O (stereo not shown) [Compound B25] | moderate
5 | CC(C)=CC(=O)OCC12C(O)CC3(C)C(=CCC4C5(C)CCC(O)C(C)(CO)C5CCC43C)C1CC(C)(C)C(O)C2OC(=O)C=C(C)C (stereo not shown) [Compound B26] | moderate
6 | CC(C)=CC(=O)OCC12C(O)CC3(C)C(=CCC4C5(C)CCC(OC(=O)C=C(C)C)C(C)(CO)C5CCC43C)C1CC(C)(C)C(O)C2O (stereo not shown) [Compound B27] | moderate
7 | CC(C)=CC(=O)OCC12C(OC(=O)C=C(C)C)CC3(C)C(=CCC4C5(C)CCC(O)C(C)(CO)C5CCC43C)C1CC(C)(C)C(O)C2O (stereo not shown) [Compound B28] | moderate
8 | CC(C)=CC(=O)OCC1(C)C(O)CCC2(C)C1CCC1(C)C2CC=C2C3CC(C)(C)C(OC(=O)C=C(C)C)C(O)C3(CO)C(O)CC21C (stereo not shown) [Compound B29] | moderate
9 | CC(C)=CC(=O)OCC1(C)C(O)CCC2(C)C1CCC1(C)C2CC=C2C3CC(C)(C)C(O)C(OC(=O)C=C(C)C)C3(CO)C(O)CC21C (stereo not shown) [Compound B30] | moderate
10 | CC(C)=CC(=O)OCC1(C)C(OC(=O)C=C(C)C)CCC2(C)C1CCC1(C)C2CC=C2C3CC(C)(C)C(O)C(O)C3(CO)C(O)CC21C (stereo not shown) [Compound B31] | moderate
11 | CC(C)=CC(=O)OCC1(C)C(O)CCC2(C)C1CCC1(C)C2CC=C2C3CC(C)(C)C(O)C(O)C3(CO)C(OC(=O)C=C(C)C)CC21C (stereo not shown) [Compound B32] | moderate
12 | C=CCCC(=O)OCC1(C)C(O)CCC2(C)C1CCC1(C)C2CC=C2C3CC(C)(C)C(O)C(O)C3(CO)C(O)CC21C (stereo not shown) [Compound C1] | moderate
13 | C=CCCC(=O)OCC12C(O)CC3(C)C(=CCC4C5(C)CCC(O)C(C)(CO)C5CCC43C)C1CC(C)(C)C(O)C2O (stereo not shown) [Compound C2] | moderate
14 | C=CCCC(=O)OCC1(C)C(O)CCC2(C)C1CCC1(C)C2CC=C2C3CC(C)(C)C(O)C(O)C3(COC(=O)CCC=C)C(O)CC21C (stereo not shown) [Compound C3] | strong
15 | C=CCCC(=O)OCC1(C)C(O)CCC2(C)C1CCC1(C)C2CC=C2C3CC(C)(C)C(OC(=O)CCC=C)C(O)C3(COC(=O)CCC=C)C(O)CC21C (stereo not shown) [Compound C4] | moderate
16 | C=CCCC(=O)OCC1(C)C(O)CCC2(C)C1CCC1(C)C2CC=C2C3CC(C)(C)C(O)C(OC(=O)CCC=C)C3(COC(=O)CCC=C)C(O)CC21C (stereo not shown) [Compound C5] | moderate
17 | C=CCCC(=O)OCC1(C)C(OC(=O)CCC=C)CCC2(C)C1CCC1(C)C2CC=C2C3CC(C)(C)C(O)C(O)C3(COC(=O)CCC=C)C(O)CC21C (stereo not shown) [Compound C6] | moderate
18 | C=CCCC(=O)OCC1(C)C(O)CCC2(C)C1CCC1(C)C2CC=C2C3CC(C)(C)C(O)C(O)C3(COC(=O)CCC=C)C(OC(=O)CCC=C)CC21C (stereo not shown) [Compound C7] | moderate
19 | C=CCCC(=O)OCC1(C)C(O)CCC2(C)C1CCC1(C)C2CC=C2C3CC(C)(C)C(OC(=O)CCC=C)C(OC(=O)CCC=C)C3(COC(=O)CCC=C)C(O)CC21C (stereo not shown) [Compound C8] | weak

Row | Structure (SMILES) | Cytotoxicity activity
20 | C=CCCC(=O)OCC1(C)C(OC(=O)CCC=C)CCC2(C)C1CCC1(C)C2CC=C2C3CC(C)(C)C(O)C(OC(=O)CCC=C)C3(COC(=O)CCC=C)C(O)CC21C (stereo not shown) [Compound C9] | weak
21 | C=CCCC(=O)OCC1(C)C(OC(=O)CCC=C)CCC2(C)C1CCC1(C)C2CC=C2C3CC(C)(C)C(O)C(O)C3(COC(=O)CCC=C)C(OC(=O)CCC=C)CC21C (stereo not shown) [Compound C10] | weak
22 | C=CCCC(=O)OCC1(C)C(OC(=O)CCC=C)CCC2(C)C1CCC1(C)C2CC=C2C3CC(C)(C)C(OC(=O)CCC=C)C(O)C3(COC(=O)CCC=C)C(O)CC21C (stereo not shown) [Compound C11] | weak
23 | C=CCCC(=O)OCC1(C)C(O)CCC2(C)C1CCC1(C)C2CC=C2C3CC(C)(C)C(O)C(OC(=O)CCC=C)C3(COC(=O)CCC=C)C(OC(=O)CCC=C)CC21C (stereo not shown) [Compound C12] | weak
24 | C=CCCC(=O)OCC1(C)C(O)CCC2(C)C1CCC1(C)C2CC=C2C3CC(C)(C)C(OC(=O)CCC=C)C(O)C3(COC(=O)CCC=C)C(OC(=O)CCC=C)CC21C (stereo not shown) [Compound C13] | weak
25 | C=CCCC(=O)OCC1(C)C(OC(=O)CCC=C)CCC2(C)C1CCC1(C)C2CC=C2C3CC(C)(C)C(O)C(OC(=O)CCC=C)C3(COC(=O)CCC=C)C(O)CC21C (stereo not shown) [Compound C14] | weak
26 | C=CCCC(=O)OCC1(C)C(OC(=O)CCC=C)CCC2(C)C1CCC1(C)C2CC=C2C3CC(C)(C)C(OC(=O)CCC=C)C(OC(=O)CCC=C)C3(COC(=O)CCC=C)C(O)CC21C (stereo not shown) [Compound C15] | weak
27 | C=CCCC(=O)OCC1(C)C(O)CCC2(C)C1CCC1(C)C2CC=C2C3CC(C)(C)C(OC(=O)CCC=C)C(OC(=O)CCC=C)C3(COC(=O)CCC=C)C(OC(=O)CCC=C)CC21C (stereo not shown) [Compound C16] | weak
28 | C=CCCC(=O)OCC1(C)C(OC(=O)CCC=C)CCC2(C)C1CCC1(C)C2CC=C2C3CC(C)(C)C(OC(=O)CCC=C)C(O)C3(COC(=O)CCC=C)C(OC(=O)CCC=C)CC21C (stereo not shown) [Compound C17] | weak
29 | C=CCCC(=O)OCC1(C)C(OC(=O)CCC=C)CCC2(C)C1CCC1(C)C2CC=C2C3CC(C)(C)C(O)C(OC(=O)CCC=C)C3(COC(=O)CCC=C)C(OC(=O)CCC=C)CC21C (stereo not shown) [Compound C18] | weak
30 | C=CCCC(=O)OCC1(C)C(OC(=O)CCC=C)CCC2(C)C1CCC1(C)C2CC=C2C3CC(C)(C)C(OC(=O)CCC=C)C(OC(=O)CCC=C)C3(COC(=O)CCC=C)C(OC(=O)CCC=C)CC21C (stereo not shown) [Compound C19] | none
31 | C=CCCC(=O)OCC12C(O)CC3(C)C(=CCC4C5(C)CCC(O)C(C)(CO)C5CCC43C)C1CC(C)(C)C(OC(=O)CCC=C)C2OC(=O)CCC=C (stereo not shown) [Compound C20] | moderate
32 | C=CCCC(=O)OCC1(C)C(O)CCC2(C)C1CCC1(C)C2CC=C2C3CC(C)(C)C(OC(=O)CCC=C)C(OC(=O)CCC=C)C3(CO)C(O)CC21C (stereo not shown) [Compound C21] | moderate
33 | C=CCCC(=O)OC1C(OC(=O)CCC=C)C2(CO)C(OC(=O)CCC=C)CC3(C)C(=CCC4C5(C)CCC(O)C(C)(CO)C5CCC43C)C2CC1(C)C (stereo not shown) [Compound C22] | moderate
34 | C=CCCC(=O)OC1C(OC(=O)CCC=C)C2(CO)C(O)CC3(C)C(=CCC4C5(C)CCC(OC(=O)CCC=C)C(C)(CO)C5CCC43C)C2CC1(C)C (stereo not shown) [Compound C23] | moderate
35 | CCCCCC(=O)OC1C(OC(=O)CCCCC)C2(CO)C(OC(=O)CCCCC)CC3(C)C(=CCC4C5(C)CCC(O)C(C)(CO)C5CCC43C)C2CC1(C)C (stereo not shown) [Compound D22] | moderate
36 | CCCCCC(=O)OC1C(OC(=O)CCCCC)C2(CO)C(O)CC3(C)C(=CCC4C5(C)CCC(OC(=O)CCCCC)C(C)(CO)C5CCC43C)C2CC1(C)C (stereo not shown) [Compound D23] | moderate
37 | CCCCCC(=O)OC1C(OC(=O)CCCCC)C2(CO)C(O)CC3(C)C(=CCC4C5(C)CCC(O)C(C)(CO)C5CCC43C)C2CC1(C)C (stereo not shown) [Compound D24] | moderate
